Test results: US5770691A, “Discriminatory substrates for MMP hydrolysis” (Regents of the University of Minnesota, priority 1995, dated 1998)
Where a SMILES comes first, the peptide text is derived from it. [ ]: non-standard residue; d: D form. The star is where a group is joined. Dnp = O=[N+]([O-])c1ccc(*)c([N+](=O)[O-])c1; Mca = COc1ccc2c(CC(=O)*)cc(=O)oc2c1; Nva = CCC[C@H](N)C(=O)O

How the values were obtained:
[1] = target: T1, MMP-2 (Homo sapiens, UniProt P08253); conditions: background, literature; cited from earlier work
T1 sequence (P08253 110-660): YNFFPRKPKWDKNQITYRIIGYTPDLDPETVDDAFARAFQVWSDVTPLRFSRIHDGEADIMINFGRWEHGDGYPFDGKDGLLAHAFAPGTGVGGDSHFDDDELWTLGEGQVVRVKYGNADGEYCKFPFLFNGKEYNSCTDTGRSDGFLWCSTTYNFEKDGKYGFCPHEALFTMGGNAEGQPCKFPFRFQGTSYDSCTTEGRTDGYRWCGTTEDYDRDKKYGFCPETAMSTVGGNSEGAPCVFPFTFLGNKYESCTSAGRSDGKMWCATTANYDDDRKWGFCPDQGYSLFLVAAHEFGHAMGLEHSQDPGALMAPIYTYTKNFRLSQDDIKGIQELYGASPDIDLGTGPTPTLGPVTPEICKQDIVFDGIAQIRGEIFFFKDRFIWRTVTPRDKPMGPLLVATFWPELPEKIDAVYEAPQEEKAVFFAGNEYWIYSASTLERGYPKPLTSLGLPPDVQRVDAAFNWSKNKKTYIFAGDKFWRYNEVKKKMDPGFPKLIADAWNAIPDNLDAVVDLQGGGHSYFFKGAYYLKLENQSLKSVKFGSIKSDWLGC

[2] = target: T2, MMP-7 (Homo sapiens, UniProt P09237); conditions: background, literature; cited from earlier work
T2 sequence (P09237 95-267): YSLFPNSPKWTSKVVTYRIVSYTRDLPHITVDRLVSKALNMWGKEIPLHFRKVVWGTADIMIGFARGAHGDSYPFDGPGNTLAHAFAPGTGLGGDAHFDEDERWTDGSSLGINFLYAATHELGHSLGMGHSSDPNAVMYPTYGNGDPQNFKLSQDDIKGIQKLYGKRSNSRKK

[3] = target: T3, MMP-3 (Homo sapiens, UniProt P08254); conditions: cited from earlier work; for kcat Km: MMP-3, assay at 37° C.; for hydrolyzed by MMP-3: background, literature
Target sequence in this assay (P08254 100-477, species assumed): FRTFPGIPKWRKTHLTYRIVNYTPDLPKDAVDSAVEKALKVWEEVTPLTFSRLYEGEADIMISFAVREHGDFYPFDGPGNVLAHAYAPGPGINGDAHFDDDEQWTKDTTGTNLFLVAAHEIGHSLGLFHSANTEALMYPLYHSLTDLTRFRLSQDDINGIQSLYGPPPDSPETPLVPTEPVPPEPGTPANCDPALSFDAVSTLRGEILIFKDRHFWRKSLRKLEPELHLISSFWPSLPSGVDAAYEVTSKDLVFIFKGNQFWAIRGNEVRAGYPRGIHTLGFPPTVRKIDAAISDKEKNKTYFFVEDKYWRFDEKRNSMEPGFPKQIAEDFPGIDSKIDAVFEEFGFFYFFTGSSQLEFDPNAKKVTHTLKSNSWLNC

[4] = target: T4, MMP-1 (Homo sapiens, UniProt P03956); conditions: background, literature; cited from earlier work
T4 sequence (P03956 100-469): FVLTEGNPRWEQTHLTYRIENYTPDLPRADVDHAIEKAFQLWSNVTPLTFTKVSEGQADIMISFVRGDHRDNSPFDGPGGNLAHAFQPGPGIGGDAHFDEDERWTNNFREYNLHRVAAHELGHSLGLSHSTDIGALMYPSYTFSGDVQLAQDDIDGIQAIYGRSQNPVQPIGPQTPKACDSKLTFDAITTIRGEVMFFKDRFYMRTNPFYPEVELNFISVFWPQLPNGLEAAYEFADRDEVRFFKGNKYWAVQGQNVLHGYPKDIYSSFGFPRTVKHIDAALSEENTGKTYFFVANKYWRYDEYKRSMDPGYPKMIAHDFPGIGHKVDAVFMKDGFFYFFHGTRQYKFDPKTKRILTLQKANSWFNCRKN

[5] = target: T3, MMP-3; assay: Fluorometric hydrolysis of synthetic Mca/Lys(Dnp) substrates by MMP-3; type: biochemical; set-up: made in house; host or cells: native secreted protein purified from culture medium of human rheumatoid synovial cells; conditions: Edman degradation analysis after 36-72 hour treatment of substrate with MMP
Target sequence in this assay (P08254 100-477): as the sequence (P08254 100-477, species assumed) above

[6] = target: T3, MMP-3; assay: as above; type: biochemical; set-up: made in house; host or cells: native secreted protein purified from culture medium of human rheumatoid synovial cells; conditions: for kcat /Km: pH 7.5
From the text: (§1) All MMPs were purified in zymogen form. ProMMP-1 (Suzuki et al., Biochem., 29, 10261 (1990)), proMMP-2 (Okada et al., Eur. J. Biochem., 194, 721 (1990)), and proMMP-3 (Ito et al., Arch. Biochem. Biophys., 267, 211 (1988)) were purified from the culture medium of human rheumatoid synovial cells stimulated with rabbit macrophage-conditioned medium. ProMMP-9 was purified from the culture medium of HT-1080 cells as described in Morodomi et al., Biochem. J., 285, 603 (1992). ProMMP-2 and proMMP-9 were activated by reacting with 1 mM 4-aminophenylmercuric acetate at 37° C. for 45 minutes and 32 hours, respectively. ProMMP-1 was activated by reacting with 1 mM 4-aminophenylmercuric acetate and an equimolar amount of MMP-3 at 37° C. for 6 hours. After activation, MMP-3 was completely removed from MMP-1 by affinity chromatography using an anti-MMP-3 IgG Affi-Gel 10 column. The resin, Affi-Gel 10 (Biorad, Emoryville, Calif.), was coupled to anti-MMP-3 IgG (Okada et al., Annals of Rheumat. Dis., 48, 645 (1989)) per the manufacturer's protocol. Pro-MMP-3 was activated by reacting with 5 μg/mL chymotrypsin at 37° C. for 2 hours. Chymotrypsin was inactivated with 2 mM diisopropylfluorophosphate. The amounts of active MMP-1, MMP-2, and MMP-3 were determined by titration with tissue inhibitor of metalloproteinase-1(TIMP1) over a concentration range of 0.1-3 μg/mL, while the amount of active MMP-9 was determined by titration with TIMP-2 (0.1-3 μg/mL). TIMP-1 was isolated from the medium of HT-1080 cells as described in Morodomi et al., Biochem J., 285, 603 (1992).
(§2) Substrates were prepared as 10 mM stock solutions in dimethylsulfoxide (DMSO). Fluorescent assays were performed at λex =325 nm and λem =393 nm, which should encounter no interference from Trp residues, using a Hitachi fluorescence spectrophotometer F-3010. Initial total hydrolysis assays were run at a substrate concentration of […] to avoid filtering effects. The change in fluorescence at this concentration was 110 based on total hydrolysis of 1 μM substrate. A typical assay was carried out by incubating 100 μL of various concentrations of a substrate with 10 μL of an enzyme solution (2-20 nM) in 50 mM Tris-HCl, pH 7.5, 0.15M NaCl, 10 mM CaCl2, 0.05% Brij 35, 0.02% NaN3. The reaction was stopped by addition of 900 μl of 3% (v/v) glacial acetic acid. MMP-3 activity at pH 6.0 was measured in 50 mM sodium acetate buffer, pH 6.0, instead of Tris-HCl buffer. The amount of substrate hydrolysis was calculated based on the fluorescence values of the Mca-Arg-Pro-Lys-Pro-Gln standard solution after substraction of the reaction blank value (stopping solution added before the enzyme). Individual kinetic parameters (kcat and KM) were determined over a substrate concentration range of 2.5-75 μM and calculated by double reciprocal plots.
Target sequence in this assay (P08254 100-477): as the sequence (P08254 100-477, species assumed) above

[7] = Solubility of substrate; type: physicochemical; conditions: 2.5% DMSO in water; read-out: soluble up to a concentration
[8] = target: T5, MMP-9 (Homo sapiens, UniProt P14780); assay: Fluorometric hydrolysis of synthetic Mca/Lys(Dnp) substrates by MMP-9; type: biochemical; set-up: made in house; host or cells: native secreted protein purified from culture medium of HT-1080 cells
From the text: as §1, §2
Target sequence in this assay (P14780 107-707 limits assumed): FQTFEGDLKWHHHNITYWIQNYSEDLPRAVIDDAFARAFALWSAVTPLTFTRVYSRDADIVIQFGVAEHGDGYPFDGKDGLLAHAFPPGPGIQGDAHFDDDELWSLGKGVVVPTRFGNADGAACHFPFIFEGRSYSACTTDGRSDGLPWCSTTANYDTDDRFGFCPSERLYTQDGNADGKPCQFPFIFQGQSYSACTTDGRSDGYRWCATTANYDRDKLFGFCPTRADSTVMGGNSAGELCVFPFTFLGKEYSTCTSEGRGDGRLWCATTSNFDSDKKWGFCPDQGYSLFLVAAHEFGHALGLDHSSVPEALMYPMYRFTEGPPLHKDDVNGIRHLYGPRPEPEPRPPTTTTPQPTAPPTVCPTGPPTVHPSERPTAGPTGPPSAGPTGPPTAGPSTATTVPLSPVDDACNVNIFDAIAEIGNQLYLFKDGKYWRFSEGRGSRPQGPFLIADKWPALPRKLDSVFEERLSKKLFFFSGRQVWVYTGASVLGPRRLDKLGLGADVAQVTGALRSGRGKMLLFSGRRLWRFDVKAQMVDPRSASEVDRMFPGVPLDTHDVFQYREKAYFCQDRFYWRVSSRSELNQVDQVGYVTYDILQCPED

[9] = target: T5, MMP-9; assay: as above; type: biochemical; set-up: made in house; host or cells: native secreted protein purified from culture medium of HT-1080 cells; conditions: Edman degradation analysis after 36-72 hour treatment of substrate with MMP
Target sequence in this assay (P14780 107-707 limits assumed): as above

[10] = target: T4, MMP-1; assay: Fluorometric hydrolysis of synthetic Mca/Lys(Dnp) substrates by MMP-1; type: biochemical; set-up: made in house; host or cells: native secreted protein purified from culture medium of human rheumatoid synovial cells
From the text: as §1, §2

[11] = target: T1, MMP-2; assay: Fluorometric hydrolysis of synthetic Mca/Lys(Dnp) substrates by MMP-2; type: biochemical; set-up: made in house; host or cells: native secreted protein purified from culture medium of human rheumatoid synovial cells
From the text: as §1, §2

[12] = target: T5, MMP-9; conditions: background, literature; cited from earlier work
Target sequence in this assay (P14780 94-707, species assumed): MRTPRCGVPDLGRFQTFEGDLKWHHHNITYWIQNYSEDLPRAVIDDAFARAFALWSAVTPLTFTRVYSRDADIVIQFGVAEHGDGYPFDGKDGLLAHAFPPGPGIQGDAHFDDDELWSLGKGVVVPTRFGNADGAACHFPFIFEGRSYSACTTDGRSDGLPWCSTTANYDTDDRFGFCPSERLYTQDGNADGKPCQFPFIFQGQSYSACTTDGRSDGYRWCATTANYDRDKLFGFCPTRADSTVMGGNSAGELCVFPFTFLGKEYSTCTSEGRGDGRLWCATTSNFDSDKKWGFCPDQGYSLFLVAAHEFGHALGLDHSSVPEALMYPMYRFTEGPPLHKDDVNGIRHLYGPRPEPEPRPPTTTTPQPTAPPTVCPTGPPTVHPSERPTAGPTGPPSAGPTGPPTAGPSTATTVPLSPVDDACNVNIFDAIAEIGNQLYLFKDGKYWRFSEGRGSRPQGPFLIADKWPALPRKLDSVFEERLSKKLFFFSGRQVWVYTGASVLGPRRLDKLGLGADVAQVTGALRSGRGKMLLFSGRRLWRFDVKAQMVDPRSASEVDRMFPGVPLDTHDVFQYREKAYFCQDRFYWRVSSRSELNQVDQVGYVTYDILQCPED

Compound	hydrolyzed by MMP-2 [1]	hydrolyzed by MMP-7 [2]	kcat Km [3]	hydrolyzed by MMP-3 [3]	hydrolyzed by MMP-1 [4]	other results
Mca--Pro--Leu--Gly"--"Leu--Dpa--Ala--Arg--NH2	hydrolyzed	hydrolyzed	23,000 S^-1 M^-1	hydrolyzed	hydrolyzed	–
Dnp-Pro-Leu-Gly-Leu-Trp-Ala-D-Arg-NH2 (Dnp-PLGLWA[dR]-NH2; SMILES CC(C)C[C@H](NC(=O)CNC(=O)[C@H](CC(C)C)NC(=O)[C@@H]1CCCN1c1ccc([N+](=O)[O-])cc1[N+](=O)[O-])C(=O)N[C@@H](Cc1c[nH]c2ccccc12)C(=O)N[C@@H](C)C(=O)N[C@H](CCCNC(=N)N)C(N)=O) [literature fluorogenic MMP substrate]	hydrolyzed	hydrolyzed	2,200 S^-1 M^-1	hydrolyzed	hydrolyzed	–
CCC[C@H](NC(=O)[C@H](CCC(=O)O)NC(=O)[C@@H](NC(=O)[C@@H]1CCCN1C(=O)[C@H](CCCCN)NC(=O)[C@@H]1CCCN1C(=O)[C@H](CCCNC(=N)N)NC(=O)Cc1cc(=O)oc2cc(OC)ccc12)C(C)C)C(=O)N[C@@H](Cc1c[nH]c2ccccc12)C(=O)N[C@@H](CCCNC(=N)N)C(=O)N[C@@H](CCCCNc1ccc([N+](=O)[O-])cc1[N+](=O)[O-])C(N)=O [NFF-3, Mca-Arg-Pro-Lys-Pro-Val-Glu-Nva-Trp-Arg-Lys(Dnp)-NH2] (Mca-RPKPVE[Nva]WRK(Dnp)-NH2)	–	–	–	–	–	site of hydrolysis by MMP-3 [5]: Glu--Nva bond; kcat /Km ([6]; MMP-3, 25° C.): 65,700 S^-1 M^-1; kcat /Km ([6]; MMP-3, 37° C.): 218,000 S^-1 M^-1; hydrolysis by MMP-3 ([6]; comparison of synthetic substrates): most rapidly hydrolyzed fluorogenic MMP-3 substrate yet described; hydrolyzed faster than NFF-2 by MMP-3 ([6]; rate relative to NFF-2): 3.7 times; solubility [7]: ≥ 250 µM; hydrolysis by MMP-9 [8]: very slowly hydrolyzed; site of hydrolysis by MMP-9 [9]: multiple sites; hydrolysis by MMP-1 [10]: not hydrolyzed; hydrolysis by MMP-2 [11]: not hydrolyzed
Dnp-Pro-Cha-Gly-Cys(CH3)-His-Ala-Lys(Nma)-NH2	–	–	–	–	hydrolyzed	hydrolyzed by MMP-9 [12]: hydrolyzed
